Data from PubChem BioAssay AID256 (DTP/NCI, 2004).
Values joined by “and” are separate entries in the source; they are usually repeats but may differ in a detail not shown here. Equal entries are not always repeated. Inconclusive results and toxic doses are left out.

System: CD2F1 mice, L1210 leukemia ip, survival T/C
Experiment: NCI In Vivo Anticancer Drug Screen. Data for tumor model L1210 Leukemia (intraperitoneal) in CD2F1 (CDF1) mice
Details: higher = longer survival
In short: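 Vehicle-treated tumor-bearing mice served as controls (C) for compound-treated mice (T). Reported figure is T divided by C.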

[1] = endpoint: mean survival time, dose: 100.0 mg/kg/injection, schedule: Q01DX009 (ip), vehicle: saline with Tween-80
[2] = endpoint: mean survival time, dose: 100.0 mg/kg/injection, schedule: Q04DX003 (ip), vehicle: saline
[3] = endpoint: mean survival time, dose: 200.0 mg/kg/injection, schedule: Q04DX003 (ip), vehicle: saline
[4] = endpoint: mean survival time, dose: 400.0 mg/kg/injection, schedule: Q04DX003 (ip), vehicle: saline
[5] = endpoint: mean survival time, dose: 100.0 mg/kg/injection, schedule: Q01DX001 (ip), vehicle: saline

For `CCN(CC)CCCC(C)(NCc1ccccc1)[P+](=O)O` (stereo not given), the T/C [1] was 90 % of control, the T/C [2] was 96 % of control and the T/C (endpoint: mean survival time, dose: 200.0 mg/kg/injection, schedule: Q01DX009 (ip), vehicle: saline with Tween-80) was 86 % of control. The T/C [3] was 91 % of control, the T/C (endpoint: mean survival time, dose: 400.0 mg/kg/injection, schedule: Q01DX009 (ip), vehicle: saline with Tween-80) was 94 % of control and the T/C [4] was 94 % of control.

In the case of `[C-]#[O+].[C-]#[O+].[C-]#[O+].[C-]#[O+].[C-]#[O+].[C-]#[O+].[Cr]`, the T/C (endpoint: mean survival time, dose: 25.0 mg/kg/injection, schedule: Q01DX009 (ip), vehicle: saline with Tween-80) is reported as 103 % of control, the T/C (endpoint: mean survival time, dose: 50.0 mg/kg/injection, schedule: Q01DX009 (ip), vehicle: saline with Tween-80) is reported as 97 % of control and 110 % of control and the T/C [1] is reported as 112 % of control.

With `CC(=O)OC1CCC2(C)C(=CCC3C2CCC2(C)C(C(C)CCCC(C)(C)O)CCC32)C1` (stereo not given) the T/C (endpoint: mean survival time, dose: 100.0 mg/kg/injection, schedule: Q04DX003 (ip), vehicle: saline with Tween-80) was 97 % of control, the T/C (endpoint: mean survival time, dose: 200.0 mg/kg/injection, schedule: Q04DX003 (ip), vehicle: saline with Tween-80) was 89 % of control and the T/C (endpoint: mean survival time, dose: 400.0 mg/kg/injection, schedule: Q04DX003 (ip), vehicle: saline with Tween-80) was 94 % of control.

In the case of `O=C1C(=O)c2ccc(Br)cc2C(O)=C1/C=C/c1ccccc1`, the T/C (endpoint: mean survival time, dose: 50.0 mg/kg/injection, schedule: Q01DX001 (ip), vehicle: saline) is reported as 104 % of control, the T/C [5] is reported as 101 % of control and the T/C (endpoint: mean survival time, dose: 200.0 mg/kg/injection, schedule: Q01DX001 (ip), vehicle: saline) is reported as 103 % of control.

In the case of `COC(=O)NC1C(C)OC(OC2C/C=C(/C)C3C=CC4C(OC5CC(OC6CC(OC7CC(O)C(O)C(C)O7)C(OC7CC(O)C(OC)C(C)O7)C(C)O6)C(O)C(C)O5)C(C)CC(C)C4C3(C)/C(O)=C3\C(=O)OC4(CC(C)C(CO)=CC4/C=C\2C)C3=O)CC1(C)[N+](=O)[O-]` (stereo not given), the T/C (endpoint: median survival time, dose: 12.5 mg/kg/injection, schedule: Q01DX009 (ip), vehicle: water) is reported as 109 % of control, the T/C (endpoint: median survival time, dose: 25.0 mg/kg/injection, schedule: Q01DX009 (ip), vehicle: water) is reported as 118 % of control and the T/C (endpoint: median survival time, dose: 50.0 mg/kg/injection, schedule: Q01DX009 (ip), vehicle: water) is reported as 110 % of control.

`CC(C)CC(NC(=O)C(N)Cc1ccc(N(CCCl)CCCl)cc1)C(=O)O` (stereo not given) was tested, and the T/C (endpoint: mean survival time, dose: 1.0 mg/kg/injection, schedule: Q04DX003 (ip), vehicle: saline with Tween-80) was 106 % of control, the T/C (endpoint: mean survival time, dose: 2.0 mg/kg/injection, schedule: Q04DX003 (ip), vehicle: saline with Tween-80) was 111 % of control and the T/C (endpoint: mean survival time, dose: 4.0 mg/kg/injection, schedule: Q04DX003 (ip), vehicle: saline with Tween-80) was 113 % of control. The T/C (endpoint: mean survival time, dose: 8.0 mg/kg/injection, schedule: Q04DX003 (ip), vehicle: saline with Tween-80) was 118 % of control, the T/C (endpoint: mean survival time, dose: 32.0 mg/kg/injection, schedule: Q04DX003 (ip), vehicle: saline with Tween-80) was 112 % of control and the T/C (endpoint: mean survival time, dose: 64.0 mg/kg/injection, schedule: Q04DX003 (ip), vehicle: saline with Tween-80) was 121 % of control.

`O=C1CC(c2ccccc2)=NO1` was tested, and the T/C (endpoint: mean survival time, dose: 100.0 mg/kg/injection, schedule: Q01DX001 (ip), vehicle: saline with Tween-80) was 106 % of control, the T/C (endpoint: mean survival time, dose: 200.0 mg/kg/injection, schedule: Q01DX001 (ip), vehicle: saline with Tween-80) was 101 % of control and the T/C (endpoint: mean survival time, dose: 400.0 mg/kg/injection, schedule: Q01DX001 (ip), vehicle: saline with Tween-80) was 101 % of control.

In the case of `CC1(O)Nc2nc3c(ncn3C3OC(CO)C(O)C3O)c(=O)n2C1O` (stereo not given), the T/C (endpoint: mean survival time, dose: 12.5 mg/kg/injection, schedule: Q01DX005 (ip), vehicle: water) is reported as 106 % of control, the T/C (endpoint: mean survival time, dose: 25.0 mg/kg/injection, schedule: Q01DX005 (ip), vehicle: water) is reported as 95 % of control and the T/C (endpoint: mean survival time, dose: 50.0 mg/kg/injection, schedule: Q01DX005 (ip), vehicle: water) is reported as 93 % of control. The T/C (endpoint: mean survival time, dose: 100.0 mg/kg/injection, schedule: Q01DX005 (ip), vehicle: water) was 101 % of control and the T/C (endpoint: mean survival time, dose: 200.0 mg/kg/injection, schedule: Q01DX005 (ip), vehicle: water) was 95 % of control.

For `CC(=O)Nc1ccc(/C=C/[N+](=O)[O-])cc1`, the T/C (endpoint: mean survival time, dose: 75.0 mg/kg/injection, schedule: Q01DX001 (ip), vehicle: other) was 105 % of control, the T/C (endpoint: mean survival time, dose: 150.0 mg/kg/injection, schedule: Q01DX001 (ip), vehicle: other) was 108 % of control and the T/C (endpoint: mean survival time, dose: 300.0 mg/kg/injection, schedule: Q01DX001 (ip), vehicle: other) was 114 % of control.

In the case of `CN(C)CCCNCc1c[nH]c(=O)[nH]c1=O`, the T/C (endpoint: mean survival time, dose: 100.0 mg/kg/injection, schedule: Q01DX009 (ip), vehicle: saline) is reported as 90 % of control, the T/C [2] is reported as 102 % of control and the T/C (endpoint: mean survival time, dose: 200.0 mg/kg/injection, schedule: Q01DX009 (ip), vehicle: saline) is reported as 102 % of control. The T/C [3] was 100 % of control, the T/C (endpoint: mean survival time, dose: 400.0 mg/kg/injection, schedule: Q01DX009 (ip), vehicle: saline) was 104 % of control and the T/C [4] was 100 % of control.

With `CN(Cc1cnc2nc(N)nc(N)c2n1)c1c(Cl)cc(C(=O)NC(CCC(=O)O)C(=O)O)cc1Cl` (stereo not given) the T/C (endpoint: mean survival time, dose: 44.0 mg/kg/injection, schedule: Q01DX009 (ip), vehicle: sodium bicarbonate) was 224 % of control, the T/C (endpoint: mean survival time, dose: 67.0 mg/kg/injection, schedule: Q01DX009 (ip), vehicle: sodium bicarbonate) was 256 % of control and the T/C (endpoint: mean survival time, dose: 100.0 mg/kg/injection, schedule: Q01DX009 (ip), vehicle: sodium bicarbonate) was 193 % of control. The T/C (endpoint: mean survival time, dose: 133.0 mg/kg/injection, schedule: Q01DX009 (ip), vehicle: sodium bicarbonate) was 170 % of control, the T/C (endpoint: mean survival time, dose: 150.0 mg/kg/injection, schedule: Q01DX009 (ip), vehicle: sodium bicarbonate) was 116 % of control and the T/C (endpoint: mean survival time, dose: 160.0 mg/kg/injection, schedule: Q01DX009 (ip), vehicle: sodium bicarbonate) was 123 % of control. The T/C (endpoint: median survival time, dose: 125.0 mg/kg/injection, schedule: Q01DX009 (ip), vehicle: sodium bicarbonate) was 123 % of control and the T/C (endpoint: median survival time, dose: 150.0 mg/kg/injection, schedule: Q01DX009 (ip), vehicle: sodium bicarbonate) was 112 % of control.

`CCOC(=O)c1[nH]c(=S)[nH]c1C(=O)OCC` was tested, and the T/C [5] was 100 % of control.
